Experimental findings from ChEMBL document CHEMBL5346867, “A close look into the biological and synthetic aspects of fused pyrazole derivatives” (Eur J Med Chem, 2022) are described below.

Assay [1] has as its system Bovine viral diarrhea virus 1. The assay is described as follows: Antiviral activity against Bovine viral diarrhea virus 1 infected in MDBK cells assessed as reduction in viral replication. The format is functional, organism-based. As to conditions: Bovine viral diarrhea virus isolates and strains.
A further assay has as its system HT-29. Description: cells. As to conditions: Homo sapiens, HT-29, 48 h.
The target in assay [2] is Vascular endothelial growth factor receptor 2 (Homo sapiens, UniProt P35968). The assay is described as follows: Inhibition of VEGFR-2 (unknown origin).
Sequence of Vascular endothelial growth factor receptor 2 (P35968 whole entry): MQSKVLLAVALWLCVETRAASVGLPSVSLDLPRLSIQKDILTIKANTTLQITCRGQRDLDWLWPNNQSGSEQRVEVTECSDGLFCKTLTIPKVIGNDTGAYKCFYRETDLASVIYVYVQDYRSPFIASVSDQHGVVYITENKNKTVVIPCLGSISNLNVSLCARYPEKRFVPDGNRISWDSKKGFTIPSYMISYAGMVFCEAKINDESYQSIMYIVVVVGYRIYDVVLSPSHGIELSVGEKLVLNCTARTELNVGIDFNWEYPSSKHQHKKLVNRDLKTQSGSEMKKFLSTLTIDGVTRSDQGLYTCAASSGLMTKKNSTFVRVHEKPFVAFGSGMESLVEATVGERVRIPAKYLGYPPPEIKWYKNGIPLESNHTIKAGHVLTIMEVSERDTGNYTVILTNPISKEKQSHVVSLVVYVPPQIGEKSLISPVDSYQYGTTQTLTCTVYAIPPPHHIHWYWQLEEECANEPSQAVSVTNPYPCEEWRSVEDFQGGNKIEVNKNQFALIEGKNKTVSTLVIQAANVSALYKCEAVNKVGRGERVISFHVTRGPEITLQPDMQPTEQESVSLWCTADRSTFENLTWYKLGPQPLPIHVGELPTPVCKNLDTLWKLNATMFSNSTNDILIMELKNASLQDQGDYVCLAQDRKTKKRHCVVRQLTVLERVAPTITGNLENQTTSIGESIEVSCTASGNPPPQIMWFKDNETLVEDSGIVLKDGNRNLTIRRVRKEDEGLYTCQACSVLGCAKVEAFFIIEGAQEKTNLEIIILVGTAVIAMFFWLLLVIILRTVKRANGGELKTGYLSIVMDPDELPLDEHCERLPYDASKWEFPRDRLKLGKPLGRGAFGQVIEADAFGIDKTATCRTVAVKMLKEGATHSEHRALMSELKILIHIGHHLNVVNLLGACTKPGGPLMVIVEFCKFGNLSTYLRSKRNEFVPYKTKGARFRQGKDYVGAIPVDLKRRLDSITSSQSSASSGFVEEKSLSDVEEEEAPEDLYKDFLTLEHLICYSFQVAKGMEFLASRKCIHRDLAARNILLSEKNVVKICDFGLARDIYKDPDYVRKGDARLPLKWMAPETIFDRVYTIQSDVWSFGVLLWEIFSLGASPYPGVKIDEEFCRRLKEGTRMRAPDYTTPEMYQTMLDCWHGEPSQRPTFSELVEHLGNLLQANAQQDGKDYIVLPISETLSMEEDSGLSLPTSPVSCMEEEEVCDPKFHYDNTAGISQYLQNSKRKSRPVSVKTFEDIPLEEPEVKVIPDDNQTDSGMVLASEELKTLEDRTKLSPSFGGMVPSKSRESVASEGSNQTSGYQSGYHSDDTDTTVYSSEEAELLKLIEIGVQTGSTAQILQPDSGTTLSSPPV
Assay [3] deals with T1, Sodium-dependent proline transporter (Homo sapiens) (UniProt Q99884).
T1 sequence (whole entry): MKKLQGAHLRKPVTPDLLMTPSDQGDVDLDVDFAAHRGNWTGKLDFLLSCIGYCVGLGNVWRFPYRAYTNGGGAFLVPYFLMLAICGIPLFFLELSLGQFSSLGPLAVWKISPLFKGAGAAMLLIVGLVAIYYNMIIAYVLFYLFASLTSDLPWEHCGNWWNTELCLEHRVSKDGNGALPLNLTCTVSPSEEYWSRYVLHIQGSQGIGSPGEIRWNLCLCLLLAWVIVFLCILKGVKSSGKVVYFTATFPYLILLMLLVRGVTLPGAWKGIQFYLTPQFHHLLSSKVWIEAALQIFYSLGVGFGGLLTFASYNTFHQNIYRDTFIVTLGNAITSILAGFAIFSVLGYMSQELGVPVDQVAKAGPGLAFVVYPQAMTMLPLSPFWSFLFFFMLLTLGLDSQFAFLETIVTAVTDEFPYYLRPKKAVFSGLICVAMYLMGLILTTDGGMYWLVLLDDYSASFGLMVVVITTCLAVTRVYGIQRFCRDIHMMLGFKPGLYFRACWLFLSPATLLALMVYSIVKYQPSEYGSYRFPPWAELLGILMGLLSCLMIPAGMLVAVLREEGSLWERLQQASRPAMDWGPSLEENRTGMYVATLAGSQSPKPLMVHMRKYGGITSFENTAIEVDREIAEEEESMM
The assay is described as follows: Inhibition of human PROT at 0.1 uM relative to control.

The target of assay [4] is Epidermal growth factor receptor (Homo sapiens, UniProt P00533). The assay is described as follows: Inhibition of EGFR (unknown origin).
Sequence of Epidermal growth factor receptor (P00533 whole entry): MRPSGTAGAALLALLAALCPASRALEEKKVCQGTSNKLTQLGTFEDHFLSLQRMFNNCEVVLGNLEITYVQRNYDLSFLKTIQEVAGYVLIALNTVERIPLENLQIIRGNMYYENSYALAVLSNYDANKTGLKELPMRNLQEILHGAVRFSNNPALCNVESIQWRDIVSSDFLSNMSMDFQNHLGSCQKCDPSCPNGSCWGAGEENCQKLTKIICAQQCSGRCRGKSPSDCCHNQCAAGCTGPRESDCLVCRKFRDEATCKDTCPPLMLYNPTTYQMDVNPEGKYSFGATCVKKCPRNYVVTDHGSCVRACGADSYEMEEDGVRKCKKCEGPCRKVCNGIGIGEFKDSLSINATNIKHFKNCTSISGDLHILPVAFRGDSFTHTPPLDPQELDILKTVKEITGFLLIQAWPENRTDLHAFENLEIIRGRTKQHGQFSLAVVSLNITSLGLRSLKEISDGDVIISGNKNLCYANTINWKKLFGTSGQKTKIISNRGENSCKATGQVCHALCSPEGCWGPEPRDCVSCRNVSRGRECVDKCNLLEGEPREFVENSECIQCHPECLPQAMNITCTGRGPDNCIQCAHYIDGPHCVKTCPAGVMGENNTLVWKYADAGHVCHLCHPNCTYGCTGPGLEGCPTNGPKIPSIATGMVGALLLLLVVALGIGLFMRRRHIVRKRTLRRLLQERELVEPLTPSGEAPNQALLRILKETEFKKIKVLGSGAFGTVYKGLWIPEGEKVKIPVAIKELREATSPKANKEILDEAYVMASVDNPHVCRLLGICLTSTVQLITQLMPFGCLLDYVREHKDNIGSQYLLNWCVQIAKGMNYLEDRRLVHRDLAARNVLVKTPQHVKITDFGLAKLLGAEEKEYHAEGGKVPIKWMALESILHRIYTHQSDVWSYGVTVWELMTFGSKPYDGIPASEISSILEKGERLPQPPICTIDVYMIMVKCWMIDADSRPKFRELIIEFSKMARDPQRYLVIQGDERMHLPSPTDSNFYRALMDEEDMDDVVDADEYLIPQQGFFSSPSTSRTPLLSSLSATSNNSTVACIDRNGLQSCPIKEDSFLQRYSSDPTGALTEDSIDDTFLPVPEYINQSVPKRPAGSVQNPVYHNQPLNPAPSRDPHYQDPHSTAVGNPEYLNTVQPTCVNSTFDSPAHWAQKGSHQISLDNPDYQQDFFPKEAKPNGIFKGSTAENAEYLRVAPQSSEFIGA

Description for HT-29: Anti-proliferative activity against human HT-29 assessed as inhibition of cell growth incubated for 48 hrs by MTT assay

In general, EC50 refers to the midpoint of the concentration-response curve. Consider `Cc1nn(-c2ccc(Cl)cc2)c2c1C(=O)N(c1ccccc1)C2`, for which the EC50 in assay [1] turned out to be 120 nM. A word on the IC50: it is the midpoint of a concentration-inhibition curve. A low value points to higher potency. `COc1cc(/C=N/NC(=O)COc2nc(C)nc3c2c(C)nn3-c2ccccc2)cc(OC)c1OC` displayed an IC50 with HT-29 of 5360 nM.

Regarding `CC1=NNC2OC(NS(=O)(=O)c3ccc(C)cc3)=C(C#N)C(c3ccccc3Br)C12` (stereo unspecified), the IC50 in assay [2] stood at 220 nM. Turning to `NC(=O)c1ncn([C@@H]2O[C@H](CO)[C@@H](O)[C@H]2O)n1` [RIBAVIRIN], the EC50 in assay [1] was 1300 nM. As usually defined, the inhibition is the share of the control response that was lost under treatment. In assay [3], `CCCCC[C@H]1CCCN1C(=O)c1nn(C(C)(C)C)c2nc(NC(=O)c3ccc(C)cc3)sc12` displayed an inhibition of 50%. In assay [4], `CC1=NNC2Oc3ncn(N)c(=N)c3C(c3ccccc3Br)C12` (stereo unspecified) returned an IC50 of 60 nM.
